Laboratory results reported in article PMC11766267 (International Journal of Molecular Sciences, 2025).
Several values for one entry are separate records, joined by “and”; a condition that tells them apart may be missing. Equal values may be shown once. Read-outs that look alike come from different tables or passages of the source.

Tests used:
[1] = test system: HCT-116, MDA-MB-231, HeLa, and MCF-7; experiment: MTT cytotoxicity assay, ranges stated over several cell lines; assay type: cell-based; conditions: Homo sapiens, range over the compounds named
Summary of the method: (§1)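 MTT read-out; insoluble formazan solubilised in DMSO.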

HER2 = HER2 (Homo sapiens, UniProt P04626); experiment: In vitro protein kinase inhibition assay (ELISA kit), HER2
Sequence of HER2 (P04626 23-1255): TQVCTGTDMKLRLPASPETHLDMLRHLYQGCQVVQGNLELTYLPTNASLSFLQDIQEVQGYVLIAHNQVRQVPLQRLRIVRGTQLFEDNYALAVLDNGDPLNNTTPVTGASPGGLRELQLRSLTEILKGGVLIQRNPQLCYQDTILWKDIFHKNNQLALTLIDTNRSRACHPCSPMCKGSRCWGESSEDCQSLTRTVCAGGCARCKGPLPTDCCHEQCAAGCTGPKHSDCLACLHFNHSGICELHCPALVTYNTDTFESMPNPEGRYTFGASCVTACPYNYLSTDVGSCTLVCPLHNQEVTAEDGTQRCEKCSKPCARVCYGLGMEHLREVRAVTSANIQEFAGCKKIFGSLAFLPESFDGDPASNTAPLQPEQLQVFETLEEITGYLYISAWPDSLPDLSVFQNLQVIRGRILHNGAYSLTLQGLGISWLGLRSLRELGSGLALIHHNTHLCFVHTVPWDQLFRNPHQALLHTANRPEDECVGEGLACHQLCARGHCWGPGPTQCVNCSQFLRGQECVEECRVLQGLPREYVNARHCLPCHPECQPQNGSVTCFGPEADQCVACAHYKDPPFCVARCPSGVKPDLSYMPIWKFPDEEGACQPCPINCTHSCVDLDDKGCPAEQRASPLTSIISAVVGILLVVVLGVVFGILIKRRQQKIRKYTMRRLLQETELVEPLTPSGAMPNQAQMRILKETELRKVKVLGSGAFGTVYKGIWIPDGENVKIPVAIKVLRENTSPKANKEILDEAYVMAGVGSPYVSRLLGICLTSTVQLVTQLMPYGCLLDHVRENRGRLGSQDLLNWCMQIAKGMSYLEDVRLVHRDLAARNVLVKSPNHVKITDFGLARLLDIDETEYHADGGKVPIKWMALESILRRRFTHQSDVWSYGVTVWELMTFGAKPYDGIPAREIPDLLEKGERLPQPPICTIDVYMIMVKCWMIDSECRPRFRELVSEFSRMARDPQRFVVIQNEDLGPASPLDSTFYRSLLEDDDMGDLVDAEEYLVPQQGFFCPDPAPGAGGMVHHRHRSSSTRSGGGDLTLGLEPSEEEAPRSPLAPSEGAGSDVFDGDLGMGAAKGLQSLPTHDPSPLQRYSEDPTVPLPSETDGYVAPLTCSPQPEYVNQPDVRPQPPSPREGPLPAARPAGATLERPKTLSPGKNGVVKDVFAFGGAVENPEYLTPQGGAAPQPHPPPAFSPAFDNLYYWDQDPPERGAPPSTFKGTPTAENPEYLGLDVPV

MDA-MB-231 = experiment: MTT cytotoxicity assay, MDA-MB-231; assay type: cell-based; conditions: Homo sapiens, 24 h treatment, mean ± SD of triplicate
Summary of the method: as §1

[2] = MTT cytotoxicity assay, normal cell line WI-38; assay type: cell-based, human; conditions: human, WI-38 cells (normal human lung fibroblasts), normal (non-cancer) cell line, 24 h treatment
Summary of the method: as §1

MCF-7a = experiment: In vitro anti-estrogenic activity assay, MCF-7a
VEGFR-2 = VEGFR-2 (Homo sapiens, UniProt P35968); experiment: In vitro protein kinase inhibition assay (ELISA kit), VEGFR-2
Sequence of VEGFR-2 (P35968 20-1356): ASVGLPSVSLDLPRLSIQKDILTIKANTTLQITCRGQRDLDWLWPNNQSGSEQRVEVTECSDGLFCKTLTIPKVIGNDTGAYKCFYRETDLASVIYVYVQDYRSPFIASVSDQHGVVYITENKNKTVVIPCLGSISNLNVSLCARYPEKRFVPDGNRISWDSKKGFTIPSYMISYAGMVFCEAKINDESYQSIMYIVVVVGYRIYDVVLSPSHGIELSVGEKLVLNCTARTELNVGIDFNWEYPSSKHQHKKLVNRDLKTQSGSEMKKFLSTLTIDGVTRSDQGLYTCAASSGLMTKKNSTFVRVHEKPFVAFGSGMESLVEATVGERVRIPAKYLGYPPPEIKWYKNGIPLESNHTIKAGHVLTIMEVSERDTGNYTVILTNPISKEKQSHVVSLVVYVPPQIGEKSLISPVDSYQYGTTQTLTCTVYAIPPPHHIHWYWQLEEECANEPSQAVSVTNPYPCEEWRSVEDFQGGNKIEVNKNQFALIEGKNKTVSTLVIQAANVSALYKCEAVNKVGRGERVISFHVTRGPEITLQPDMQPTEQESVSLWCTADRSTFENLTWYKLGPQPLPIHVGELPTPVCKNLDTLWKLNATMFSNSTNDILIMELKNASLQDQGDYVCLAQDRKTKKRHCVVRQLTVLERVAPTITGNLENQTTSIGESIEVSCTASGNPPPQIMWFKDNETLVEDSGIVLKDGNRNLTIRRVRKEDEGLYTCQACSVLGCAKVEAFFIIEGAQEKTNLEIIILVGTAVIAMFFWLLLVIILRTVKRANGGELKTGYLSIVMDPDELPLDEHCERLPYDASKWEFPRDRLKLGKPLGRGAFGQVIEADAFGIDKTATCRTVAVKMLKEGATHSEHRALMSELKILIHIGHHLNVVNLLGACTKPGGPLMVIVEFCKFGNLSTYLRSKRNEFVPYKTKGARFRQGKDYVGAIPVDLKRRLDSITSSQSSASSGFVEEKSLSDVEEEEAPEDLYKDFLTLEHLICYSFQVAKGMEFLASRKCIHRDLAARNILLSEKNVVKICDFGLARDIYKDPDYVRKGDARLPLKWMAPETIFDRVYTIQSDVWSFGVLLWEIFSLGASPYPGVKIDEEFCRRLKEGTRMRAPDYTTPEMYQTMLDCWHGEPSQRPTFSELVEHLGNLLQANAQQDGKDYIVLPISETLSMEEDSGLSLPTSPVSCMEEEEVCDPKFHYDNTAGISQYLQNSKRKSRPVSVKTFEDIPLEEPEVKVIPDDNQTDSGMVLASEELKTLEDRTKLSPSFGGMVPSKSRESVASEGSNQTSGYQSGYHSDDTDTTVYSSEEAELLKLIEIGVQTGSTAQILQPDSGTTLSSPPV

HeLa = experiment: MTT cytotoxicity assay, HeLa; assay type: cell-based; conditions: Homo sapiens, 24 h treatment, mean ± SD of triplicate
Summary of the method: as §1

MCF-7 [3] = experiment: MTT cytotoxicity assay, MCF-7; assay type: cell-based, human; conditions: Homo sapiens, MCF7, 24 h, 24 h treatment, mean ± SD of triplicate
Summary of the method: as §1

CDK2 = CDK2 (Homo sapiens, UniProt P24941); experiment: In vitro protein kinase inhibition assay (ELISA kit), CDK2
[4] = molecular target: T1, aromatase (CYP19A, EC 1.14.14.14) (Homo sapiens, UniProt P11511); experiment: biochemical
T1 construct: Microsomal samples were isolated from tissue using the Microsome Isolation Kit; tissue BioVision K983-100; host or cells: microsomes from an unnamed tissue
T1 sequence (P11511 1-503): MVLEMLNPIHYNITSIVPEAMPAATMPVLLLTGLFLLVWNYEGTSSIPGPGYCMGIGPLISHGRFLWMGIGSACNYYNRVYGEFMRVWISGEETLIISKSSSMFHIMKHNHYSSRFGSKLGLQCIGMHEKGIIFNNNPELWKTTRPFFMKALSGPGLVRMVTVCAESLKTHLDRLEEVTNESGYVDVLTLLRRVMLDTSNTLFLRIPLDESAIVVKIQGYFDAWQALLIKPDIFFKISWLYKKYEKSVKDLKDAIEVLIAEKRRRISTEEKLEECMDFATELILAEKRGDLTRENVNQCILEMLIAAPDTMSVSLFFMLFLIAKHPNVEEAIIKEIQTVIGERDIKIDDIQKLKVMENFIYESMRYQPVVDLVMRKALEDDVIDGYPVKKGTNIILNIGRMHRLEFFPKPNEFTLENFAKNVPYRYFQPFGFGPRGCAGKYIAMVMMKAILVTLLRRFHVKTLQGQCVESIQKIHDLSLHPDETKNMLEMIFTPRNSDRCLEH
Procedure: In vitro aromatase assay was performed using the BioVision Aromatase Activity Assay Kit (Catalog # K983-100; BioVision, Milpitas, CA, USA). Microsomal samples were isolated from tissue using the Microsome Isolation Kit (Cat. #K249; BioVision, Milpitas, CA, USA). A standard curve was established by diluting the Fluorescence Standard provided in the kit to create a 0.5 pmole/µL solution, followed by setting up a series of standards in a white 96-well plate, adjusting the total volume to 100 µL with aromatase assay buffer. For each reaction well, a 2X concentrated mix was prepared by adding 2–48 µL of the microsomal sample and 2 µL of the NADPH generating system, bringing the final volume to 50 µL with aromatase assay buffer. Background controls (no enzyme) and positive controls (with recombinant aromatase) were included. […] After a 10 min incubation at 37 °C, 30 µL of the substrate/NADP+ mixture was added to each well, and fluorescence was measured immediately in kinetic mode for 60 min at 37 °C. Finally, the change in fluorescence was calculated to determine the specific activity of aromatase using the formula provided in the kit protocol.

MCF-7 [5] = experiment: In vitro anti-estrogenic activity assay, MCF-7
EGFR = EGFR (Homo sapiens, UniProt P00533); experiment: In vitro protein kinase inhibition assay (ELISA kit), EGFR
Sequence of EGFR (P00533 25-1210): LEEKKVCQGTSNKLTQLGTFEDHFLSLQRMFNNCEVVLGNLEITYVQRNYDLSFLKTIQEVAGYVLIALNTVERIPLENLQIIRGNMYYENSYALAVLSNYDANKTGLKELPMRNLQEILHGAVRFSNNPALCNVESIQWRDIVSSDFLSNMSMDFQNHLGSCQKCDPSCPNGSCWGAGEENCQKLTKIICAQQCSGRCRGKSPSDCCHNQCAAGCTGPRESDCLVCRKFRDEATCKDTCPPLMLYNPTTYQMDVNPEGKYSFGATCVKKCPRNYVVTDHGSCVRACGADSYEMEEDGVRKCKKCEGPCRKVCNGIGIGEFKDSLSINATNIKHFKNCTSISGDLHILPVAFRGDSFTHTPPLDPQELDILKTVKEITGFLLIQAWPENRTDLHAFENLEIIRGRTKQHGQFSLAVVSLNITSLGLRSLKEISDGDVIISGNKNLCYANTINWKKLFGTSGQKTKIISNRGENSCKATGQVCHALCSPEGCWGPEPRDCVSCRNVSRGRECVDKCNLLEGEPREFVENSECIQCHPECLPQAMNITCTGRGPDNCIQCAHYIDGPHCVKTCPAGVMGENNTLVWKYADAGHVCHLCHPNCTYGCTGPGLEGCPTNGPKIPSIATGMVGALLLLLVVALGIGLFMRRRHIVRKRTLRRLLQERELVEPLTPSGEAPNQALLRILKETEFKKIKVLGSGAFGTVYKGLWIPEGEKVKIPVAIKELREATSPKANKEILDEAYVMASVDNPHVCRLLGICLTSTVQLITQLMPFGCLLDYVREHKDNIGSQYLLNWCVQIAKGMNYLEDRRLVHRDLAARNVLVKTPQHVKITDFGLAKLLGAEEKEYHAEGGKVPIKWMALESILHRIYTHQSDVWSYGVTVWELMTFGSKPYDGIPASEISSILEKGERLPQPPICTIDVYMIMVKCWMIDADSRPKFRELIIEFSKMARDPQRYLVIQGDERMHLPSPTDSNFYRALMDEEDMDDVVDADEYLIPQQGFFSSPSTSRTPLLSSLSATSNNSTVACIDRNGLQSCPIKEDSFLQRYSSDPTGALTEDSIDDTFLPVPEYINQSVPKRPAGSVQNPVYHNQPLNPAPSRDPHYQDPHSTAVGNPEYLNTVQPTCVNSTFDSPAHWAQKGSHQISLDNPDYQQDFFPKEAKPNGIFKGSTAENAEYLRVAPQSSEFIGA

HCT-116 = experiment: MTT cytotoxicity assay, HCT-116; assay type: cell-based; conditions: Homo sapiens, 24 h treatment, mean ± SD of triplicate
Summary of the method: as §1

[6] = cell count relative to the control (17β-E2)

COc1cccc(C(=O)/C=C/c2ccc(OCc3ccccc3)cc2)c1 [Compound 4q, (E)-3-(4-(Benzyloxy)phenyl)-1-(3-methoxyphenyl)prop-2-en-1-one]
IC50 ([1]; HCT-116 and HeLa, read-out: IC50 values, range against HCT-116 and HeLa): 6590 to 22600 nM | IC50 ([1]; MDA-MB-231 and MCF-7, read-out: IC50 values, range against MDA-MB-231 and MCF-7): 2080 to 13600 nM | IC50 (HER2): ~144 nM | Inhibition (%) Her2 (HER2; 0.01 µM, individual Data 1-3): 25% and 25.9% | Inhibition (%) Her2 (HER2; 0.1 µM, individual Data 1-3): 47.70% and 48.76% | Inhibition (%) Her2 (HER2; 1 µM, individual Data 1-3): 68.30% and 69.5% | Inhibition (%) Her2 (HER2; 10 µM, individual Data 1-3): 86.89% and 87.78% | Inhibition (%) Her2 (HER2; 100 µM, individual Data 1-3): 95.7% and 96.9% | inhibition at 0.1 µM (HER2; read-out: Inhibition % at 0.1 µM HER2, 0.1 µM, the data between the highest and lowest values): 48% | inhibition at 0.01 µM (HER2; read-out: Inhibition (%) Her2, 0.01 µM, individual Data 1-3): 25.6% | inhibition at 0.1 µM (HER2; read-out: Inhibition (%) Her2, 0.1 µM, individual Data 1-3): 48% | inhibition at 1 µM (HER2; read-out: Inhibition (%) Her2, 1 µM, individual Data 1-3): 68.9% | inhibition at 10 µM (HER2; read-out: Inhibition (%) Her2, 10 µM, individual Data 1-3): 87.3% | inhibition at 100 µM (HER2; read-out: Inhibition (%) Her2, 100 µM, individual Data 1-3): 96.2% | IC50 (MDA-MB-231): 13.6 ± 1.1 µM | IC50 at 24 h [2]: > 100 µM | Cell Proliferation MCF-7a % (MCF-7a; [6]): 99% | Cell Proliferation MCF-7a Cell Count (MCF-7a; mean ± SD of triplicate): 20,630 ± 595 | Inhibition in MCF-7a (MCF-7a; relative to control): 1% | IC50 (VEGFR-2): 287 ± 10 nM | Inhibition (%) VEGFR2 (VEGFR-2; 0.01 µM, individual Data 1-3): 16.9% | Inhibition (%) VEGFR2 (VEGFR-2; 0.1 µM, individual Data 1-3): 38.9% and 39.1% | Inhibition (%) VEGFR2 (VEGFR-2; 1 µM, individual Data 1-3): 66.7% and 66.4% | Inhibition (%) VEGFR2 (VEGFR-2; 10 µM, individual Data 1-3): 87.1% and 87.6% | Inhibition (%) VEGFR2 (VEGFR-2; 100 µM, individual Data 1-3): 95.4% and 95.9% | inhibition at 0.01 µM (VEGFR-2; read-out: Inhibition (%) VEGFR2, 0.01 µM, individual Data 1-3): 17% | inhibition at 0.1 µM (VEGFR-2; read-out: Inhibition (%) VEGFR2, 0.1 µM, individual Data 1-3): 39% | inhibition at 1 µM (VEGFR-2; read-out: Inhibition (%) VEGFR2, 1 µM, individual Data 1-3): 66.8% | inhibition at 10 µM (VEGFR-2; read-out: Inhibition (%) VEGFR2, 10 µM, individual Data 1-3): 87.3% | inhibition at 100 µM (VEGFR-2; read-out: Inhibition (%) VEGFR2, 100 µM, individual Data 1-3): 95.7% | IC50 (HeLa): 22.6 ± 1.7 µM | IC50 (MCF-7 [3]): 11.6 ± 0.9 µM | IC50 (CDK2): ~170 nM | Inhibition (%) CDK2 (CDK2; 0.01 µM, individual Data 1-3): 24.8% and 25.2% | Inhibition (%) CDK2 (CDK2; 0.1 µM, individual Data 1-3): 41.7% and 42.2% | Inhibition (%) CDK2 (CDK2; 1 µM, individual Data 1-3): 70.9% and 71.2% | Inhibition (%) CDK2 (CDK2; 10 µM, individual Data 1-3): 87.8% and 88.3% | Inhibition (%) CDK2 (CDK2; 100 µM, individual Data 1-3): 96% and 96.6% | inhibition at 0.1 µM (CDK2; read-out: Inhibition % at 0.1 µM CDK2, 0.1 µM, the data between the highest and lowest values): 41.9% | inhibition at 0.01 µM (CDK2; read-out: Inhibition (%) CDK2, 0.01 µM, individual Data 1-3): 25.1% | inhibition at 0.1 µM (CDK2; read-out: Inhibition (%) CDK2, 0.1 µM, individual Data 1-3): 41.9% | inhibition at 1 µM (CDK2; read-out: Inhibition (%) CDK2, 1 µM, individual Data 1-3): 71.1% | inhibition at 10 µM (CDK2; read-out: Inhibition (%) CDK2, 10 µM, individual Data 1-3): 88.1% | inhibition at 100 µM (CDK2; read-out: Inhibition (%) CDK2, 100 µM, individual Data 1-3): 96.3% | Inhibition (%) Aromatase ([4]; 0.01 µM, individual Data 1-3): 6.6% and 8.9% | Inhibition (%) Aromatase ([4]; 0.1 µM, individual Data 1-3): 17.9% and 20.7% | Inhibition (%) Aromatase ([4]; 1 µM, individual Data 1-3): 54% and 53.8% | Inhibition (%) Aromatase ([4]; 10 µM, individual Data 1-3): 81.5% and 83.9% | Inhibition (%) Aromatase ([4]; 100 µM, individual Data 1-3): 91.6% and 93.8% | IC50 ([4]; mean ± SD of triplicate, approximate values, read-out: Aromatase Inhibition IC50): 901 nM and 801 nM | inhibition at 0.01 µM ([4]; read-out: Inhibition (%) Aromatase, 0.01 µM, individual Data 1-3): 7.8% | inhibition at 0.1 µM ([4]; read-out: Inhibition (%) Aromatase, 0.1 µM, individual Data 1-3): 19% | inhibition at 1 µM ([4]; read-out: Inhibition (%) Aromatase, 1 µM, individual Data 1-3): 55.9% | inhibition at 10 µM ([4]; read-out: Inhibition (%) Aromatase, 10 µM, individual Data 1-3): 82% | inhibition at 100 µM ([4]; read-out: Inhibition (%) Aromatase, 100 µM, individual Data 1-3): 92% | Cell Proliferation MCF-7 % (MCF-7 [5]; [6]): 37% | Cell Proliferation MCF-7 Cell Count (MCF-7 [5]; mean ± SD of triplicate): 6874 ± 245 | Reduction of growth/cell count (inhibition) in MCF-7 (MCF-7 [5]; relative to control): 63% | IC50 (EGFR): 151 ± 5 nM | Inhibition (%) EGFR (EGFR; 0.01 µM, individual Data 1-3): 22.9% and 24.2% | Inhibition (%) EGFR (EGFR; 0.1 µM, individual Data 1-3): 45.2% and 47.5% | Inhibition (%) EGFR (EGFR; 1 µM, individual Data 1-3): 71.9% and 70.2% | Inhibition (%) EGFR (EGFR; 10 µM, individual Data 1-3): 86.9% and 90% | Inhibition (%) EGFR (EGFR; 100 µM, individual Data 1-3): 95.6% and 97.9% | inhibition at 0.01 µM (EGFR; read-out: Inhibition (%) EGFR, 0.01 µM, individual Data 1-3): 23.4% | inhibition at 0.1 µM (EGFR; read-out: Inhibition (%) EGFR, 0.1 µM, individual Data 1-3): 46.8% | inhibition at 1 µM (EGFR; read-out: Inhibition (%) EGFR, 1 µM, individual Data 1-3): 72% | inhibition at 10 µM (EGFR; read-out: Inhibition (%) EGFR, 10 µM, individual Data 1-3): 88.4% | inhibition at 100 µM (EGFR; read-out: Inhibition (%) EGFR, 100 µM, individual Data 1-3): 96.3% | IC50 (HCT-116): 17.1 ± 1.3 µM
